Test results as given in US9629848B2, “Compounds that modulate autoimmunity and methods of using the same” (The Regents of the University of Colorado, a body corporate, priority 2011, dated 2017).
pIC50: −log10 of the molar value.

Legend:
[1] = tested on: clone 5 TCR transfectomas, insulin B:13-23 antigen; assay: Ex vivo biomarker assay in DQ8 humanized mice, clone 5 TCR transfectomas with insulin B:13-23
Protocol: (§1) TATD was further evaluated in humanized DQ8 mice. These mice are on a NOD background, I-A null, and contain transgenes for DQ8 and human CD4 (NOD, I-A^g^7 null, DQ8 transgene, Rag KO). TATD was used to develop a rapid ex vivo biomarker assay to monitor the effects of small molecules on antigen presentation in DQ8 humanized mice. To identify a biomarker, mice were treated in vivo with TATD (either by intraperitoneal injection or gastric gavage) and isolated splenocytes or peripheral blood mononuclear cells (PBMCs) were used to monitor antigen presentation to DQ8 restricted T cell receptor (TCR) transfectomas.
(§2) Using this biomarker assay, DQ8 humanized mice were treated with a single intraperitoneal dose of TATD (20 mg/kg) and then sacrificed 2 hours later. Splenocytes from treated mice were cultured with the insulin B:13-23 antigen in the presence of clone 5 TCR transfectomas, or deamidated α-gliadin in the presence of the 489 TCR transfectoma. No TATD was added in vitro to the stimulation assays. Control mice received IP injections of PBS (the vehicle in which TATD is dissolved).

I-A^g^7 = assay: Soluble binding assay, B:9-23 peptide to empty I-A^g^7; design: species or system mouse; details: dose dependent
[2] = tested on: isolated whole islets from an adult non-diabetic NOD mouse; assay: TCR response to isolated whole islets; assay type: cell-based; details: islets containing beta cells
Protocol: (§3) The ability of the small molecules to block endogenous insulin presentation was tested. Incubation of whole insulin with I-A^g^7 containing splenocytes activates 5KC cells (T cell hybridoma lacking endogenous TCRα and β chains) transduced with a 4-8 TCR. […] To document direct effects of these small molecules on inhibiting peptide binding to I-A^g^7, an I-A^g^7 protein construct was expressed in baculovirus with a linked peptide. The flexible linker contained a thrombin cleavage site, allowing for thrombin cleavage of the linker and release of the peptide.

Anti-CD3 stimulation = Anti-CD3 stimulation control in ex vivo biomarker assay; design: species or system DQ8 humanized mice; details: mouse
Protocol: The IL-2 response from the TCR transfectomas using splenocytes harvested within 2 hours from TATD treated mice was abrogated compared to PBS treated controls (FIGS. 13A and 13B). Anti-CD3 stimulation was not inhibited in the presence of TATD.

[3] = tested on: 5KC cells transduced with a 4-8 TCR; assay: Endogenous insulin presentation: whole insulin with I-A^g^7 splenocytes and 4-8 TCR transduced 5KC cells; assay type: cell-based, mouse
Protocol: as §3

NOD mice = assay: Insulin autoantibody production and diabetes onset in NOD mice; assay type: in vivo, mouse; details: 20 mg/kg IP daily from 4 to 12 weeks of age
Protocol: To test the efficacy of this molecule in vivo, Jackson NOD mice were treated with TATD at a dose of 20 mg/kg IP daily starting at 4 weeks of age. Treatment ceased at 12 weeks of age. Insulin autoantibody (IAA) was measured before treatment at 8, 10, 12, 16, 20, and 24 weeks of age.

[4] = tested on: human T cell receptor recognizing insulin B:9-23 presented by human DQ8; assay: Inhibition of human T cell receptor recognizing insulin B:9-23 presented by human DQ8; assay type: cell-based
Description: Using a TCR sequence obtained from a T cell line generated from the peripheral blood of a diabetic individual with DQ8 molecule, a TCR was identified that is DQ8 restricted and responds to the insulin B:9-23 peptide.
Molecules predicted to occupy pockets 1 and 9 of the human DQ8 peptide binding groove were identified using in silico molecular docking program. The top scoring compounds for each pocket were screened for their ability to inhibit anti-B:9-23 T cell responses. FIGS. 9A and 9B represent the results of the T cell stimulation assay for compounds occupying pocket 1 and pocket 9 of the human DQ8 peptide binding groove, respectively.

[5] = tested on: T cell response to the autoantigen, amino acids 9-23 in the B chain of insulin; assay: Inhibition of T cell response to insulin B chain amino acids 9-23; assay type: cell-based, mouse
Description: (§4) This molecule inhibited the insulin presentation to T cells capable of causing diabetes in mice and T cells responding to insulin in humans. […] Specificity was shown by using the molecule to inhibit tetramer binding (I-A^g^7 complexed to insulin peptides) to T cells.

[6] = tested on: 489 TCR transfectoma, deamidated α-gliadin; assay: Ex vivo biomarker assay in DQ8 humanized mice, 489 TCR transfectoma with deamidated α-gliadin; details: pooled PBMCs from treated mice
Protocol: as §1, §2

DQ8 = DQ8 (Homo sapiens, UniProt P01909+P01920, A209T/A45G/C70Q/D89A/DUP78-78/E183D/E77G/F237L/G63E/H199R/I129T/K197E/L178F/L74F/L98V/Q57E/Q76R/S185I/S97I/T217I/T49S/V73L/Y58L); assay: Competitive binding assay B:9-23 to DQ8
[7] = target: T1, I-A^b complexed to a 3K peptide (Mus musculus, UniProt P14434+P14483); assay: Tetramer staining, I-A^b complexed to a 3K peptide; assay type: cell-based; details: specificity control
T1 sequence (P14434 24-218 limits assumed): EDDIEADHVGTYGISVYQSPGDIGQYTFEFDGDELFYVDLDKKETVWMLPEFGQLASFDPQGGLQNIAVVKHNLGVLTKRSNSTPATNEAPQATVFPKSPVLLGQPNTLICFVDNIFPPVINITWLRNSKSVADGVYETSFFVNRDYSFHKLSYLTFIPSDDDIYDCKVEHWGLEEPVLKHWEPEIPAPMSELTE
T1 sequence (P14483 28-226 limits assumed): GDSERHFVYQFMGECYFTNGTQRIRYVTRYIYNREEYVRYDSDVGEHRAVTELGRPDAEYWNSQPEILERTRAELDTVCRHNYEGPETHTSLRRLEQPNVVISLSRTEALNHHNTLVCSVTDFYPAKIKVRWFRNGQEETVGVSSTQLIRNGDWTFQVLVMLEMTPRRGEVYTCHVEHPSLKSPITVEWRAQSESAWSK

[8] = tested on: DQ8 restricted T cell receptor (TCR) transfectomas; assay: Ex vivo biomarker assay in DQ8 humanized mice, duration and oral route
[9] = tested on: I-A^g^7 complexed to insulin peptides; assay: Tetramer staining, I-A^g^7 complexed to insulin peptides; assay type: cell-based, mouse
Description: as §4

`C1CN2CN3CCN(CN1C3)C2` [TATD, 1,3,6,8-tetraazatricyclo (4.4.1.1(3,8)) dodecane] was tested, and the “Clone 5 response to insulin B:13-23 presented by PBMCs” value ([1]; pooled PBMCs from treated mice) was “blocked”, the “IL-2 response of clone 5 TCR transfectomas, splenocytes” value ([1]; single 20 mg/kg IP dose, splenocytes harvested within 2 hours, vs PBS controls) was “abrogated” and the “Inhibition of B:9-23 peptide binding to I-A^g^7” value (I-A^g^7) was “block peptide binding”. For the same compound, the “Inhibition of TCR response to whole islets” value [2] was “able to inhibit endogenous antigen presentation”, the Anti-CD3 stimulation (Anti-CD3 stimulation) was “not inhibited” and the “Inhibition of endogenous antigen presentation of whole insulin by antigen presenting cells” value [3] was “able to inhibit endogenous antigen presentation”. The Diabetes onset (NOD mice) was “prevents diabetes onset”, the “Insulin autoantibody (IAA) formation” value (NOD mice; IAA up to 24 weeks) was “blocks IAA formation” and the “Concentration inhibiting antigen presentation by human DQ8 to T cells involved in type 1 diabetes” value [4] was “low nanomolar”. For the same compound, the “Concentration inhibiting T cell response to insulin B:9-23” value [5] was “low nanomolar”, the “489 TCR transfectoma response to deamidated α-gliadin presented by PBMCs” value [6] was “the same response is seen” and the “Block of peptide binding to DQ8” value (DQ8) was “block peptide binding”. For the same compound, the pIC50 (DQ8) was 11.35, the “T cell staining with I-A^b / 3K peptide tetramer” value [7] was “did not alter T cell staining” and the “Blocking IL-2 production from the TCR transfectomas” value ([8]; gastric gavage) was “effective at blocking IL-2 production”. The Oral absorption ([8]; gastric gavage) was “orally absorbed”, the “Duration of effects on antigen presentation” value ([8]; single dose) was 7 days and the “Tetramer staining of T cells recognizing insulin B:9-23 presented by I-A^g^7” value [9] was “inhibited tetramer staining”.
